Test results from US12275731B2, “Azaindole inhibitors of wild-type and mutant forms of LRRK2” (DANA-FARBER CANCER INSTITUTE, INC., priority 2018, dated 2025).

Experiments:
Assay in all cases: KinomeScan profiling
Assay type in all cases: binding
PKMYT1 = target: T1, PKMYT1 (Homo sapiens, UniProt Q99640); details: PKMYT1, 1 μM; read-out: % control
T1 sequence (Q99640 1-499): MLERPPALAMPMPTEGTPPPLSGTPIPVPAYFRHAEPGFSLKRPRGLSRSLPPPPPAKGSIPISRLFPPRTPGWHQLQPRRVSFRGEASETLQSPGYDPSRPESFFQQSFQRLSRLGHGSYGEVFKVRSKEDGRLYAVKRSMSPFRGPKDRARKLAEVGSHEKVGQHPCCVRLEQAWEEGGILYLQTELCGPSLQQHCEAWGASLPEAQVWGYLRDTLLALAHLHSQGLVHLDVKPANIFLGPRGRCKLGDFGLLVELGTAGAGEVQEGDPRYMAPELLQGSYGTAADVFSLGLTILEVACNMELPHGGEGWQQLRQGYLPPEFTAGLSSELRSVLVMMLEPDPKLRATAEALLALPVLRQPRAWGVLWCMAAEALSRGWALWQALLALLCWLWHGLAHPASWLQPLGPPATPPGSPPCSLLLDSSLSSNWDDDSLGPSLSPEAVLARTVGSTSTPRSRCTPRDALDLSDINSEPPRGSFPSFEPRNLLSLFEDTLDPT
How it was run: (§1)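 1 μM cpd in DMSO; 468-kinase panel; readout RLU. % ctrl = (cpd − pos ctrl)/(neg ctrl − pos ctrl) ×100. Pos ctrl = 0%, DMSO = 100%. Hit cut-off <35%.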

EPHA8 = target: T2, EPHA8 (Homo sapiens, UniProt P29322); details: EPHA8, 1 μM; read-out: % control
T2 sequence (P29322 28-1005): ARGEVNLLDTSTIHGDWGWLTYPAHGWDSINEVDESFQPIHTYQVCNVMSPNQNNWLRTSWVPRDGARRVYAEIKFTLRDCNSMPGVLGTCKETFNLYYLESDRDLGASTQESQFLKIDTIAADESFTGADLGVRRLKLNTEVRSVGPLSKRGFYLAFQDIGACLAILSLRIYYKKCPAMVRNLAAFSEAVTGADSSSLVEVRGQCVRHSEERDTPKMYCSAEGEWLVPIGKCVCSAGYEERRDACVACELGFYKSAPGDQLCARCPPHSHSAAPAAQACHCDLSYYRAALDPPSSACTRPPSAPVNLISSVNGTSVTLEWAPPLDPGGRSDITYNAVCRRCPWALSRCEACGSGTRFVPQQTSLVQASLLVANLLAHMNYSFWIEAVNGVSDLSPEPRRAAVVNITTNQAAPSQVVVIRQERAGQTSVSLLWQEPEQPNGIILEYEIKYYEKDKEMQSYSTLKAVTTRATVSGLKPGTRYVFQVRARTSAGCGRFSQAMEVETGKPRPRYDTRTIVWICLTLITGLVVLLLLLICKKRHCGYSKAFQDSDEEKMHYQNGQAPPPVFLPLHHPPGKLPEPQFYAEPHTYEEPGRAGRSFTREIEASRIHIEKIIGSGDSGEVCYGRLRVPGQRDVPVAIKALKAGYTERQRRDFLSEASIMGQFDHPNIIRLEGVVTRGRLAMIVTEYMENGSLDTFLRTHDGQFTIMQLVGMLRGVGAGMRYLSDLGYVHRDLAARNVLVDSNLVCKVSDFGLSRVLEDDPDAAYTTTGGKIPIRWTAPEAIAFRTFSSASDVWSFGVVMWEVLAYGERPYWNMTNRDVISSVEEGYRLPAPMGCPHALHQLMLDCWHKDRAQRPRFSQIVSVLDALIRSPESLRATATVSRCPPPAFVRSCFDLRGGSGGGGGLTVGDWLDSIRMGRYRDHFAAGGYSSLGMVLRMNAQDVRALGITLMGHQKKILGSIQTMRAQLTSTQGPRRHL
How it was run: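 Single-point competition binding screen: 1 μM, DMSO, 468 kinases. Results reported as % control from RLU, normalised to DMSO and positive-control wells. Activity threshold: <35% control.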

PIK3CA(E545K) = target: T3, PIK3CA(E545K) (Homo sapiens, UniProt P42336, E545K); details: read-out: % control
T3 construct: purchased KinomeScan® (panel service)
How it was run: as §1

STK33 = target: T4, STK33 (Homo sapiens, UniProt Q9BYT3); details: STK33, 1 μM; read-out: % control
T4 construct: purchased KinomeScan® (panel service)
How it was run: as §1

TRKC = TRKC (Homo sapiens, UniProt Q16288); details: read-out: % control
How it was run: as §1

SRPK3 = target: T5, SRPK3 (Homo sapiens, UniProt Q9UPE1); details: SRPK3, 1 μM; read-out: % control
T5 construct: purchased KinomeScan® (panel service)
How it was run: as §1

YSK1 = YSK1 (Homo sapiens, UniProt O00506); details: YSK1, 1 μM; read-out: % control
How it was run: as §1

ALK(C1156Y) = target: T6, ALK(C1156Y) (Homo sapiens, UniProt Q9UM73, C1156Y); details: read-out: % control
T6 construct: purchased KinomeScan®
How it was run: as §1

HIPK2 = HIPK2 (Homo sapiens, UniProt Q9H2X6); details: HIPK2, 1 μM; read-out: % control
How it was run: as §1

T5 sequence (Q9UPE1 whole entry): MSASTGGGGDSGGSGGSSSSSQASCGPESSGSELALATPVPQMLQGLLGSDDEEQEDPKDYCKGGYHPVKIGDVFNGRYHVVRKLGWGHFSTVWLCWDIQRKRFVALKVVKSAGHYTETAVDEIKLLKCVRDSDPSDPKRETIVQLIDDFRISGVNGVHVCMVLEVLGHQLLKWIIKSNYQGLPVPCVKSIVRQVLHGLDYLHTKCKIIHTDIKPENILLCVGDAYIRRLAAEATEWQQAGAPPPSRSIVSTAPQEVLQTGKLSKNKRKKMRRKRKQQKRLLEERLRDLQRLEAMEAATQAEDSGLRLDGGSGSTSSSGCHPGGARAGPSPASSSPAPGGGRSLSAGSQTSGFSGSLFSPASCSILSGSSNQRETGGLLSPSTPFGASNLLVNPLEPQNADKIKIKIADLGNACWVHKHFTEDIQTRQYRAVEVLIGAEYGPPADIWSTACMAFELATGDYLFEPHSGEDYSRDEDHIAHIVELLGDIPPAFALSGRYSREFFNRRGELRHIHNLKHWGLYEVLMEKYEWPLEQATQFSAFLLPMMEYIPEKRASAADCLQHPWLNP
HIPK2, sequence (Q9H2X6 whole entry): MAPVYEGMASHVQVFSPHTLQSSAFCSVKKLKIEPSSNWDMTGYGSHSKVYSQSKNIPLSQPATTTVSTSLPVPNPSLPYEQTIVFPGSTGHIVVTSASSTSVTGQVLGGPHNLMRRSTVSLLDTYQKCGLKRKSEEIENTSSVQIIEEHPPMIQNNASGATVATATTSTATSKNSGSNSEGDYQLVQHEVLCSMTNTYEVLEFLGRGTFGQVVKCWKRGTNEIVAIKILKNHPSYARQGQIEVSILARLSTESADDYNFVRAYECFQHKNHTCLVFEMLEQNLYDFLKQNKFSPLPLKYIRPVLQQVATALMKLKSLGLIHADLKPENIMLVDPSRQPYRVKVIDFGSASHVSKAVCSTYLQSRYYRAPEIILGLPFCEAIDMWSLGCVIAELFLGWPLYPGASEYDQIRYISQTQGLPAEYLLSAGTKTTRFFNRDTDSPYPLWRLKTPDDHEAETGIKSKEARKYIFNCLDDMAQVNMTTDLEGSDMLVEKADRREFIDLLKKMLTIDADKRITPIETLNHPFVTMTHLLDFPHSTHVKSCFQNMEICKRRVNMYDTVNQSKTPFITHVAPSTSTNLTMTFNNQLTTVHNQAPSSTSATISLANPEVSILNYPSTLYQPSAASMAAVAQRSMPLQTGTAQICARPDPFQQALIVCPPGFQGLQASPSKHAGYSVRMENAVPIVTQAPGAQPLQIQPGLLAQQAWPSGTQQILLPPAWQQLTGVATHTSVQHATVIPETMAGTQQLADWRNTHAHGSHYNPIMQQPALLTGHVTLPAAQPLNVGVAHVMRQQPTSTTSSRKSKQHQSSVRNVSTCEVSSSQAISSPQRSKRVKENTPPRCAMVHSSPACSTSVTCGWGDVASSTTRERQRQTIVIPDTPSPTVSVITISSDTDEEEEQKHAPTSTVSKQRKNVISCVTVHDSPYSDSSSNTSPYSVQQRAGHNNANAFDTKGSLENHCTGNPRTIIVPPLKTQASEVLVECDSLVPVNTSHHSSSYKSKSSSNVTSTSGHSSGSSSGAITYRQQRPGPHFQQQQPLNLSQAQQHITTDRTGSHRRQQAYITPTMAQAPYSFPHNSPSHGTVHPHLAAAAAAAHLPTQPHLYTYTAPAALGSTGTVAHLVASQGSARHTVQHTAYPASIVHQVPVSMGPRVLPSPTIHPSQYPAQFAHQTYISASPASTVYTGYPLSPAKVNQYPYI
YSK1, sequence (O00506 whole entry): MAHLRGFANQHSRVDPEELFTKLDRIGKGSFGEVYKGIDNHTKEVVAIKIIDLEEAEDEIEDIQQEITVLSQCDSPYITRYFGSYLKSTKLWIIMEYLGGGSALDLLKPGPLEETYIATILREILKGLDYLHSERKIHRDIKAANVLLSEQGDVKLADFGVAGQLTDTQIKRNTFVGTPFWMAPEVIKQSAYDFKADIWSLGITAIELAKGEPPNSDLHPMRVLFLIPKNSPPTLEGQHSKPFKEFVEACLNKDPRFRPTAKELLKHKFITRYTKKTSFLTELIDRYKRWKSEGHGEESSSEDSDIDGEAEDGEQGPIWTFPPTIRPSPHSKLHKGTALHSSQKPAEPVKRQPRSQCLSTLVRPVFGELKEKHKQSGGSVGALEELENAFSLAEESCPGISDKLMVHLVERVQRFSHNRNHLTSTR
T6 sequence (Q9UM73 19-1620 C1156Y): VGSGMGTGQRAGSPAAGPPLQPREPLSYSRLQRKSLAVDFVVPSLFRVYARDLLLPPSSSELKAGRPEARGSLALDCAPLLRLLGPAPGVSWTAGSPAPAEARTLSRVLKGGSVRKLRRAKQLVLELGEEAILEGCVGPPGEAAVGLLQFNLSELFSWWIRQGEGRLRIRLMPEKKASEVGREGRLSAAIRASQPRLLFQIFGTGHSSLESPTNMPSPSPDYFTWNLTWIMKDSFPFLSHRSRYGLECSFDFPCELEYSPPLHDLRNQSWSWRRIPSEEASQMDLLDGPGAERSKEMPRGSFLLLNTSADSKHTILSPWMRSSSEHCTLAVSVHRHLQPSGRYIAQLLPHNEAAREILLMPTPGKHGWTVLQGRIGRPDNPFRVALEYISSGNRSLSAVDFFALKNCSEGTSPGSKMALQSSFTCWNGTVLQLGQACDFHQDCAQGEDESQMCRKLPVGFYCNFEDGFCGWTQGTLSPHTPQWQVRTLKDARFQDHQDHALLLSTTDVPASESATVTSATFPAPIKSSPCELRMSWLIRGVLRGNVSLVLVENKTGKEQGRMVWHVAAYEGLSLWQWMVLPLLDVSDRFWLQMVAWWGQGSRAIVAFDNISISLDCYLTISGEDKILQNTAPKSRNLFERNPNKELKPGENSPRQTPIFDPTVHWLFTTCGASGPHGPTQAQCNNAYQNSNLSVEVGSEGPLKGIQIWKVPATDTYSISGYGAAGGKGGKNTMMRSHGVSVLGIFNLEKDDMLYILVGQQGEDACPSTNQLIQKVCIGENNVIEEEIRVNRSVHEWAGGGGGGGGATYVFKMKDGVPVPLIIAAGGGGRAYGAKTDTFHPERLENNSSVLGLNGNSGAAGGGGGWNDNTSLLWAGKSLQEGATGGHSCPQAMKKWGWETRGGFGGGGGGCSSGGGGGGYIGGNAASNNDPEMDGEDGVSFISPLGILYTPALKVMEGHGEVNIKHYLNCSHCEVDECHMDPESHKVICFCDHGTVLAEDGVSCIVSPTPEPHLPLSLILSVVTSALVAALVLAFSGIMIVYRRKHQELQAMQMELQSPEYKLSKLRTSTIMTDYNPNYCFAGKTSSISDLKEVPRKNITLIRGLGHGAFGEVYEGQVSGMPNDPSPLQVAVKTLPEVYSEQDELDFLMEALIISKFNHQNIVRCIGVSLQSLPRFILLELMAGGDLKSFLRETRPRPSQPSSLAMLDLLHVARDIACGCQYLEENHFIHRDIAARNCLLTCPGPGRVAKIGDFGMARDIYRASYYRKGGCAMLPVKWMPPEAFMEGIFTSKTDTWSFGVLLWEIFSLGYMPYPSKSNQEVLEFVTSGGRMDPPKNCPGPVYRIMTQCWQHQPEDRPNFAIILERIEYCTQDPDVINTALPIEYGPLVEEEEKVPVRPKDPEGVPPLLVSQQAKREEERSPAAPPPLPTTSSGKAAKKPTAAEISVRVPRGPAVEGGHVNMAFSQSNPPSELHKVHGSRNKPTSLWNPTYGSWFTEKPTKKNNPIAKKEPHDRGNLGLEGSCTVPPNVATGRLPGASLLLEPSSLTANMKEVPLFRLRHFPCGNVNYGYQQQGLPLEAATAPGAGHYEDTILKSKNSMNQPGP
T4 sequence (Q9BYT3 whole entry): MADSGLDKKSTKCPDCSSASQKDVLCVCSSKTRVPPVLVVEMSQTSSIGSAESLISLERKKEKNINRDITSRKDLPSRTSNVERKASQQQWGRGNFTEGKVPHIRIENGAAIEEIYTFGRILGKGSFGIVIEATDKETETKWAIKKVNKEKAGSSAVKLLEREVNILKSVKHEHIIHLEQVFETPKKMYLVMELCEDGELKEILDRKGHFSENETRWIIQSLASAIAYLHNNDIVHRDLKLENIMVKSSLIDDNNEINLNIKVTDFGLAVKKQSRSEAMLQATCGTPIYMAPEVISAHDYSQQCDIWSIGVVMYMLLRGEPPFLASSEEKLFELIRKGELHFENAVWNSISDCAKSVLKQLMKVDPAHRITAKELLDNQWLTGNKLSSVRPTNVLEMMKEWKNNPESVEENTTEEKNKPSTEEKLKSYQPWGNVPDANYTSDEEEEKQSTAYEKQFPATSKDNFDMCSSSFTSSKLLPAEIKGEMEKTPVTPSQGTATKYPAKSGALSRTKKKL

SMILES	remaining binding at 1 µM (PKMYT1) [%]	remaining binding at 1 µM (EPHA8) [%]	remaining binding at 1 µM (PIK3CA(E545K)) [%]	remaining binding at 1 µM (STK33) [%]	remaining binding at 1 µM (TRKC) [%]	remaining binding at 1 µM (SRPK3) [%]	remaining binding at 1 µM (YSK1) [%]	remaining binding at 1 µM (ALK(C1156Y)) [%]	remaining binding at 1 µM (HIPK2) [%]
O=C(c1ccc(-c2cnc3[nH]cc(Cl)c3c2NC2CCCC2)cc1)N1CCC(N2CCOCC2)CC1 [Compound 101, (4-(3-chloro-4-(cyclopentylamino)-1H-pyrrolo[2,3-b]pyridin-5-yl)phenyl)(4-morpholinopiperidin-1-yl)methanone]	97	93	79	100	100	9.9	100	66	100
CNc1c(-c2cnn([C@H]3CCN(C(C)=O)C[C@@H]3F)c2)cnc2[nH]cc(Cl)c12 [Compound 77, 1-((3S,4S)-4-(4-(3-chloro-4-(methylamino)-1H-pyrrolo[2,3-b]pyridin-5-yl)-1H-pyrazol-1-yl)-3-fluoropiperidin-1-yl)ethan-1-one]	98	94	18	100	51	16	84	47	81
CNc1c(-c2ccc(C(=O)N3CCC(N4CCOCC4)CC3)cc2)cnc2[nH]cc(Cl)c12 [Compound 96, (4-(3-chloro-4-(methylamino)-1H-pyrrolo[2,3-b]pyridin-5-yl)phenyl)(4-morpholinopiperidin-1-yl)methanone]	100	96	31	100	82	17	97	37	74
